Calls of active or inactive are those of the source. For most assays here, no stated cut-off is given here; in the data, actives have a measured Kd and inactives only a lower limit.
Columns and labels:
[1] = target: T1, Receptor-type tyrosine-protein kinase FLT3 (Homo sapiens, UniProt P36888)
T1 sequence (P36888 whole entry): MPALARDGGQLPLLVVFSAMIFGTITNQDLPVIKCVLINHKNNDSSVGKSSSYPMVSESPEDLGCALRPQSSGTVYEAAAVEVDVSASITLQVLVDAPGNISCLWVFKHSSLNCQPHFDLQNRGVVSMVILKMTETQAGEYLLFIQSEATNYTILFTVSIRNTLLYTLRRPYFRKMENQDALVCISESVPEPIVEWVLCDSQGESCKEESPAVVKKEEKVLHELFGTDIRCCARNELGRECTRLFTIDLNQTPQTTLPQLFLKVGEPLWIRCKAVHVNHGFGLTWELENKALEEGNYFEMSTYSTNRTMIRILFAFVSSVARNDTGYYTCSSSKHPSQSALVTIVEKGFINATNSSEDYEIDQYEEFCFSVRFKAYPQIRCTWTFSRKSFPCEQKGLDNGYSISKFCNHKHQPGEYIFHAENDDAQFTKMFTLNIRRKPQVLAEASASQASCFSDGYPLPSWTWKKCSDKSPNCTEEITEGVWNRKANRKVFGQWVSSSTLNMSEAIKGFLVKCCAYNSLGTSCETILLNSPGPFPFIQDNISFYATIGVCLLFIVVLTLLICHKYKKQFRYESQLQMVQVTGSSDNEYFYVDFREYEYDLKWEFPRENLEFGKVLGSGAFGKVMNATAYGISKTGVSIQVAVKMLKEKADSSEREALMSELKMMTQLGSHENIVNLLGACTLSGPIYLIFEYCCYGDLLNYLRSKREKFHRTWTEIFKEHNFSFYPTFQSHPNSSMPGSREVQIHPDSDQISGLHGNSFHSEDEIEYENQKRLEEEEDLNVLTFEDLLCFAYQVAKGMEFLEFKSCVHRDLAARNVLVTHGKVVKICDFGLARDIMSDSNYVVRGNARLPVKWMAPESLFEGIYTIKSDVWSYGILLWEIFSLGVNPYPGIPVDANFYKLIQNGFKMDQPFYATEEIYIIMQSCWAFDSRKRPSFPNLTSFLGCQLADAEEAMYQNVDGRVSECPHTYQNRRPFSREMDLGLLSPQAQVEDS

[2] = target: Mitogen-activated protein kinase 7 (Homo sapiens, UniProt Q13164)
Sequence of Mitogen-activated protein kinase 7 (Q13164 whole entry): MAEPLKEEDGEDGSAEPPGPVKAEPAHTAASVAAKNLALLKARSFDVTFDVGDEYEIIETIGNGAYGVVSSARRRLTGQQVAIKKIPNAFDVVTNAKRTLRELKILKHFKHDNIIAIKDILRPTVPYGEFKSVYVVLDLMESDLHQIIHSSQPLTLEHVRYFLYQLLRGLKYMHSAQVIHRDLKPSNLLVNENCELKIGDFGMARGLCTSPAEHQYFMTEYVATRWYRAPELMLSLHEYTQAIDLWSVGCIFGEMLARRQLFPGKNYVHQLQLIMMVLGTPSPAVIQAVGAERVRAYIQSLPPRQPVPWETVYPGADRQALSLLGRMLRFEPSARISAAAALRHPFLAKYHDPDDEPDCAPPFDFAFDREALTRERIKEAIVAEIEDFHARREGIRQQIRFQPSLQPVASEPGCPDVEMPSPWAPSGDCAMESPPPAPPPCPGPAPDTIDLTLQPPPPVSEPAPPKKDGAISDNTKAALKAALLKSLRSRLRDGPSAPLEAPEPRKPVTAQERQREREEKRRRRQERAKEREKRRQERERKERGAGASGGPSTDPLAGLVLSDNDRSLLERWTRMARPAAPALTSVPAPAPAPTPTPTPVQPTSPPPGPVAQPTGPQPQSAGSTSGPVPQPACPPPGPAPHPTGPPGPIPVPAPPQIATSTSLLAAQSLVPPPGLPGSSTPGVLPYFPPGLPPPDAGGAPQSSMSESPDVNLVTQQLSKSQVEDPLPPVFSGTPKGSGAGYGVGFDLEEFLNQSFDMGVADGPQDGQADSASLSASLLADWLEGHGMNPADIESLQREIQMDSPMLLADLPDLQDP

[3] = target: T2, MAP kinase-activated protein kinase 5 (Homo sapiens, UniProt Q8IW41)
T2 sequence (Q8IW41 whole entry): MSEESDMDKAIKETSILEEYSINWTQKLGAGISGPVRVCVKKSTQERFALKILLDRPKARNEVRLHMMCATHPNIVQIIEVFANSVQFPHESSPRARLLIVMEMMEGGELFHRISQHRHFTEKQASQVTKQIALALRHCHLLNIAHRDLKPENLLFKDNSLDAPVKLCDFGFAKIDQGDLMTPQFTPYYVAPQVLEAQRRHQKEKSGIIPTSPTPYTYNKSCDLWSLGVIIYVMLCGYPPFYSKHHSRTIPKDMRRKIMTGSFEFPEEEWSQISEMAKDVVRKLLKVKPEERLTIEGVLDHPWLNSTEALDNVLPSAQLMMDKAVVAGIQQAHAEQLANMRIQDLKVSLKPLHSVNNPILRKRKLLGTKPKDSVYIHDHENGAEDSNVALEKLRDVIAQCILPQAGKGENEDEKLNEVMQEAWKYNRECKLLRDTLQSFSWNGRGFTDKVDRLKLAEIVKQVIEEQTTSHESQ

[4] = target: T3, MAP/microtubule affinity-regulating kinase 4 (Homo sapiens, UniProt Q96L34)
T3 sequence (Q96L34 whole entry): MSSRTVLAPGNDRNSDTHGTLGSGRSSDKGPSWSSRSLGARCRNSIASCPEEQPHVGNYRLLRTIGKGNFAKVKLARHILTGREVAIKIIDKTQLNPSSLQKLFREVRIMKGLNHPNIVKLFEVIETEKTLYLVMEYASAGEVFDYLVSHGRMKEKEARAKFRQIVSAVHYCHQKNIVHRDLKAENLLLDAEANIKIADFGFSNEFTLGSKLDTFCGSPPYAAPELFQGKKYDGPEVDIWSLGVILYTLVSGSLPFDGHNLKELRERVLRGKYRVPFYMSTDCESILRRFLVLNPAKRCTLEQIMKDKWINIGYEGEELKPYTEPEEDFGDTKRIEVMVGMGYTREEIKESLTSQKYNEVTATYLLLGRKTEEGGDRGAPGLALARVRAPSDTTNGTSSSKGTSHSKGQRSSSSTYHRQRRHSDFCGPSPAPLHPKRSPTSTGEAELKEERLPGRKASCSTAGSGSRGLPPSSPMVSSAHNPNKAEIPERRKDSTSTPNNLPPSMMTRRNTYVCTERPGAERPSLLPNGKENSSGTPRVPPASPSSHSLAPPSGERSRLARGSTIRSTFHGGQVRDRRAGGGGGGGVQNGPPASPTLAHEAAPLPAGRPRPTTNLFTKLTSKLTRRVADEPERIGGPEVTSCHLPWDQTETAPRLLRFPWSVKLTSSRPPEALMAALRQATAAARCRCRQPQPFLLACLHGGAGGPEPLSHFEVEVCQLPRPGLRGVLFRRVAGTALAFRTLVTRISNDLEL

[5] = target: Protein kinase C alpha type (Homo sapiens, UniProt P17252)
[6] = target: Ribosomal protein S6 kinase alpha-4 (Homo sapiens, UniProt O75676)
Sequence of Ribosomal protein S6 kinase alpha-4 (O75676 whole entry): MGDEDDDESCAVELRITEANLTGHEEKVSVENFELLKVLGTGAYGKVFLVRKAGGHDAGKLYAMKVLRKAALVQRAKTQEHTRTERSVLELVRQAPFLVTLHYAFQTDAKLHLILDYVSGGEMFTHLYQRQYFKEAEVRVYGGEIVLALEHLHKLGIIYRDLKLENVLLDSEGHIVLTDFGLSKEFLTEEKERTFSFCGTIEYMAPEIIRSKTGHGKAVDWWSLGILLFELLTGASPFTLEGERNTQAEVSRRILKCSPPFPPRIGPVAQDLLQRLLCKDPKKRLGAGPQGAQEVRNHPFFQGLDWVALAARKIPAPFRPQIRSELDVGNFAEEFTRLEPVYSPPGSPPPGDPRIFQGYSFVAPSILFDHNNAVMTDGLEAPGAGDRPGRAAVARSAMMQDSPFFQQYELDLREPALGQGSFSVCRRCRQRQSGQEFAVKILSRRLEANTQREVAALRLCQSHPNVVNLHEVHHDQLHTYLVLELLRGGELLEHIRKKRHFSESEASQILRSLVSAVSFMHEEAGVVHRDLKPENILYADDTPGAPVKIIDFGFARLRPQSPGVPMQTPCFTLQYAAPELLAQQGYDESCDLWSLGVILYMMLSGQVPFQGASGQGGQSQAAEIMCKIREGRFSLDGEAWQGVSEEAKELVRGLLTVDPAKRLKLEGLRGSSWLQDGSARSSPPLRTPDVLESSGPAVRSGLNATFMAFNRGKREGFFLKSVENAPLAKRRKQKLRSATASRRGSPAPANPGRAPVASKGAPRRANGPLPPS

[7] = target: T4, Signal recognition particle receptor subunit alpha (Homo sapiens, UniProt P08240)
T4 sequence (P08240 whole entry): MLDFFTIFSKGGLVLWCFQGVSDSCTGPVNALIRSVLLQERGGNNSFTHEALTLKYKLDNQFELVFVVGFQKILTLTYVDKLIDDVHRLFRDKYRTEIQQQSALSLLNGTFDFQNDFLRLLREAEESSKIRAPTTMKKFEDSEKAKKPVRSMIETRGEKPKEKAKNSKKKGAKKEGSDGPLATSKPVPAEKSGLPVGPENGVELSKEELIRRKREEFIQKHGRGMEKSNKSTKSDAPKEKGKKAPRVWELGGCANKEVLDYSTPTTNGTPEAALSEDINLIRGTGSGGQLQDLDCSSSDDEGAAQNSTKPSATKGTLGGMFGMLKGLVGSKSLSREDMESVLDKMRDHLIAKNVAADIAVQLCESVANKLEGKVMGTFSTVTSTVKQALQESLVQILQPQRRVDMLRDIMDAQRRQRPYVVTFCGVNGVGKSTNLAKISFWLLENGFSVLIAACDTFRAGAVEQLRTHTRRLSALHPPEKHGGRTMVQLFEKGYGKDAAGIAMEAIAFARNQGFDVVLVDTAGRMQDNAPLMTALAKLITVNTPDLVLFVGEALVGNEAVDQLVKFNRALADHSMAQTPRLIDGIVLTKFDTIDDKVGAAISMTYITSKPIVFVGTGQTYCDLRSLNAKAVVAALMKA

| Kd [1] | Kd [2] | Kd [3] | Kd [4] | Kd [5] | Kd [6] | Kd [7] | SMILES |
| --- | --- | --- | --- | --- | --- | --- | --- |
| > 30 µM (inactive) | > 30 µM (inactive) | > 30 µM (inactive) | > 30 µM (inactive) | > 30 µM (inactive) | > 30 µM (inactive) | > 30 µM (inactive) | CCc1cnn2c(NCc3ccc[n+]([O-])c3)cc(N3CCCC[C@H]3CCO)nc12 [DINACICLIB] |
| > 30 µM (inactive) | > 30 µM (inactive) | > 30 µM (inactive) | > 30 µM (inactive) | > 30 µM (inactive) | > 30 µM (inactive) | > 30 µM (inactive) | Cn1cc(-c2ccc3nnc(C(F)(F)c4ccc5ncccc5c4)n3n2)cn1 [JNJ-38877605] |
| > 30 µM (inactive) | > 30 µM (inactive) | > 30 µM (inactive) | > 30 µM (inactive) | > 30 µM (inactive) | > 30 µM (inactive) | > 30 µM (inactive) | C[C@@H]1CN(Cc2ccc(F)cc2)[C@@H](C)CN1C(=O)c1cc2c(C(=O)C(=O)N(C)C)cn(C)c2cc1Cl [TALMAPIMOD] |
| 0.627 µM (active) | > 30 µM (inactive) | > 30 µM (inactive) | > 30 µM (inactive) | > 30 µM (inactive) | > 30 µM (inactive) | > 30 µM (inactive) | COc1cc(N2CCC(N3CCN(C)CC3)CC2)ccc1Nc1ncnc(Nc2ccccc2S(=O)(=O)C(C)C)n1 [ASP-3026] |
| > 30 µM (inactive) | > 30 µM (inactive) | > 30 µM (inactive) | > 30 µM (inactive) | > 30 µM (inactive) | > 30 µM (inactive) | > 30 µM (inactive) | CNC(=O)c1ccc(-c2cnc3ncc(Cc4ccc5ncccc5c4)n3n2)cc1F [CAPMATINIB] |
| > 30 µM (inactive) | > 30 µM (inactive) | > 30 µM (inactive) | > 30 µM (inactive) | > 30 µM (inactive) | > 30 µM (inactive) | > 30 µM (inactive) | Cc1ccc(S(=O)(=O)Nc2nc3ccccc3nc2Nc2ccc3nsnc3c2)cc1 |
| > 30 µM (inactive) | > 30 µM (inactive) | > 30 µM (inactive) | > 30 µM (inactive) | > 30 µM (inactive) | > 30 µM (inactive) | > 30 µM (inactive) | COc1cc2nccc(Oc3ccc(NC(=O)NC4CC4)c(Cl)c3)c2cc1C(N)=O [LENVATINIB] |
| > 30 µM (inactive) | > 30 µM (inactive) | > 30 µM (inactive) | > 30 µM (inactive) | > 30 µM (inactive) | > 30 µM (inactive) | > 30 µM (inactive) | Cc1ccc(NC(=O)c2ccc(CN3CC[C@H](N(C)C)C3)c(C(F)(F)F)c2)cc1Nc1nccc(-c2cncnc2)n1 [BAFETINIB] |
| > 30 µM (inactive) | > 30 µM (inactive) | > 30 µM (inactive) | > 30 µM (inactive) | > 30 µM (inactive) | > 30 µM (inactive) | > 30 µM (inactive) | Cn1cc(-c2ccc(F)c(C(F)(F)F)c2)nc1C1CCN(c2ncnc3[nH]ncc23)CC1 [LY-2584702] |
| > 30 µM (inactive) | > 30 µM (inactive) | > 30 µM (inactive) | > 30 µM (inactive) | > 30 µM (inactive) | 0.499 µM (active) | > 30 µM (inactive) | O=C1NC(=O)/C(=C/c2ccc3nccc(-c4ccncc4)c3c2)S1 [GSK-1059615] |
| 12.5 µM (active) | > 30 µM (inactive) | > 30 µM (inactive) | > 30 µM (inactive) | > 30 µM (inactive) | > 30 µM (inactive) | > 30 µM (inactive) | O=C(Nc1ccc(-c2ccnc(Nc3ccc(N4CCOCC4)cc3)n2)cc1)C1CCCN1 (centres undefined) [XL-019] |
| > 30 µM (inactive) | > 30 µM (inactive) | > 30 µM (inactive) | > 30 µM (inactive) | > 30 µM (inactive) | > 30 µM (inactive) | > 30 µM (inactive) | COc1cc(CCc2cc(NC(=O)c3ccc(N4C[C@@H](C)N[C@@H](C)C4)cc3)n[nH]2)cc(OC)c1 [AZD-4547] |
| > 30 µM (inactive) | > 30 µM (inactive) | > 30 µM (inactive) | > 30 µM (inactive) | > 30 µM (inactive) | > 30 µM (inactive) | > 30 µM (inactive) | COc1cc(OC)c(/C=C/S(=O)(=O)Cc2ccc(OC)c(NCC(=O)O)c2)c(OC)c1 [RIGOSERTIB] |

| SMILES | Kd [1] | Kd [2] | Kd [3] | Kd [4] | Kd [5] | Kd [6] | Kd [7] |
| --- | --- | --- | --- | --- | --- | --- | --- |
| C=CC(=O)N1CCC(Oc2cc3c(Nc4ccc(Cl)c(Cl)c4F)ncnc3cc2OC)CC1 [POZIOTINIB] | > 30 µM (inactive) | > 30 µM (inactive) | > 30 µM (inactive) | > 30 µM (inactive) | > 30 µM (inactive) | > 30 µM (inactive) | > 30 µM (inactive) |
| CN1CC[C@@H](c2c(O)cc(O)c3c(=O)cc(-c4ccccc4Cl)oc23)[C@@H]1CO | > 30 µM (inactive) | > 30 µM (inactive) | > 30 µM (inactive) | > 30 µM (inactive) | > 30 µM (inactive) | > 30 µM (inactive) | > 30 µM (inactive) |
| CN1CCC(COc2cnc(-c3cccc(Cn4nc(-c5cccc(C#N)c5)ccc4=O)c3)nc2)CC1 [TEPOTINIB] | > 30 µM (inactive) | > 30 µM (inactive) | > 30 µM (inactive) | > 30 µM (inactive) | > 30 µM (inactive) | > 30 µM (inactive) | > 30 µM (inactive) |
| O=C(c1ccc(F)c(F)c1Nc1ccc(I)cc1F)N1CC(O)([C@@H]2CCCCN2)C1 [COBIMETINIB] | > 30 µM (inactive) | > 30 µM (inactive) | > 30 µM (inactive) | > 30 µM (inactive) | > 30 µM (inactive) | > 30 µM (inactive) | > 30 µM (inactive) |

Source: ChEMBL document CHEMBL3991601, “The target landscape of clinical kinase drugs” (Science, 2017)
